Source: patent publication US20210171948A1, “COMPOSITIONS AND METHODS FOR TARGETING GLYPICAN-2 IN THE TREATMENT OF CANCER” (Shepherd Therapeutics, Inc., priority 2019, published 2021)
Strand notation (5' to 3'): a small letter for the sugar, then the base; units joined by * are phosphorothioate-linked, units joined directly phosphodiester-linked; [ ] holds rarer units or linkages, { } end groups; capitals alone tell only the bases. d = 2'-deoxy (DNA); r = 2'-OH (RNA)

What was measured:
[1] = test system: CHP212, SKNAS, SKNBE2 or CHLA90 neuroblastoma cells; test: Tumor spheroid formation after siRNA transfection, low attachment plate (Example 11); type: cell-based; settings: 96 hours following transfection, in cells with the highest degree of GPC2 mRNA knockdown (FIG. 6)
Experimental: The effect of GPC2 knockdown on tumor spheroid formation was assessed. CHP212, SKNAS, SKNBE2 or CHLA90 neuroblastoma cells were transfected with either a scrambled control siRNA or with a GPC2 siRNA of sequence 5 from Table 7 using the RNAiMAX Lipofectamine kit (Invitrogen, Carlsbad, Calif.), as previously described. Following transfection, cells were plated in a low attachment 96 well plate for spheroid formation while under siRNA treatment.

GPC2 protein = GPC2 protein expression by flow cytometry of immunostained cells after siRNA transfection; type: cell-based, human; settings: for Time point at which GPC2 protein expression started to decrease: CHP212, SH-SY5Y and CHLA90 neuroblastoma cell lines
Experimental: The extent of GPC2 mRNA reduction (knockdown) and corresponding protein level expression changes were assessed in three neuroblastoma cell lines following siRNA knockdown of GPC2. The CHP212 neuroblastoma cell line (FIG. 5A and FIG. 5D), the SH-SY5Y neuroblastoma cell line (FIG. 5B and FIG. 5E) and the CHLA90 neuroblastoma cell line (FIG. 5C and FIG. 5F) were transfected with GPC2 siRNA sequences 5 and 7 from Table 7 and a scrambled control siRNA using the RNAiMAX Lipofectamine kit (Invitrogen, Carlsbad, Calif.) as previously described. Following a 24, 48, or 72 hour incubation period, cells were washed and total RNA was isolated for measuring GPC2 mRNA expression. For protein analysis, cells were fixed, immunostained using an antibody against GPC2 protein, protein expression was measured via flow cytometry. As shown, GPC2 mRNA knockdown was observed beginning at the 24 hr time point and lasted for at least 72 hours. GPC2 protein expression started to decrease at the 48 hr time point.

[2] = CHLA90 cells, at 72 hours (FIG. 5F)
[3] = CHP212 cells, at 48 and 72 hours (FIG. 5D)
[4] = SH-SY5Y cells, at 48 and 72 hours (FIG. 5E)

| Substance | Tumor spheroid formation [1] | GPC2 protein expression (Mean Fluorescence (FL1) Intensity) (GPC2 protein; [2]) | Time point at which GPC2 protein expression started to decrease (GPC2 protein) | GPC2 protein expression (Mean Fluorescence (FL1) Intensity) (GPC2 protein; [3]) | GPC2 protein expression (Mean Fluorescence (FL1) Intensity) (GPC2 protein; [4]) |
| --- | --- | --- | --- | --- | --- |
| GPC2 siRNA 5: siRNA duplex: sense CUCAGUAGCCCAGCACUCU[dT][dT] (SEQ ID NO: 211), anti-sense AGAGUGCUGGGCUACUGAG[dT][dT] (SEQ ID NO: 212) (sense CUCAGUAGCCCAGCACUCUTT; antisense AGAGUGCUGGGCUACUGAGTT; sugars from the 5' end r19 d2, backbone not given here; listed as Homo sapiens) | greatest inhibition in their ability to form spheroids | Reduced GPC2 protein expression | 48 h | Reduced GPC2 protein expression | Reduced GPC2 protein expression |
| GPC2 siRNA 7: siRNA duplex: sense CUCCUUUCUGGUUCACACA[dT][dT] (SEQ ID NO: 215), anti-sense UGUGUGAACCAGAAAGGAG[dT][dT] (SEQ ID NO: 216) (sense rCrUrCrCrUrUrUrCrUrGrGrUrUrCrArCrArCrAdTdT; antisense rUrGrUrGrUrGrArArCrCrArGrArArArGrGrArGdTdT; listed as Homo sapiens) | – | Reduced GPC2 protein expression | 48 h | Reduced GPC2 protein expression | Reduced GPC2 protein expression |
